# Results as given in ChEMBL document CHEMBL1949576, “Praziquantel derivatives exhibit activity against both juvenile and adult Schistosoma japonicum” (2012).
# Legend:
# Assay type in all cases: functional
# Schistosoma japonicum [1] = experiment: Antischistosomal activity against adult Schistosoma japonicum assessed as worm survival at 25 uM after 72 hrs relative to control
# Schistosoma japonicum [2] = experiment: Antischistosomal activity against adult Schistosoma japonicum infected in mouse assessed as total worm reduction at 200 mg/kg, po administered 21 days after infection relative to control; set-up: scale not given: the % may be the effect or the level left
# Schistosoma japonicum [3] = experiment: Antischistosomal activity against adult Schistosoma japonicum assessed as worm survival at 25 uM after 48 hrs relative to control
# Schistosoma japonicum [4] = experiment: Antischistosomal activity against juvenile Schistosoma japonicum assessed as worm survival at 50 uM after 24 hrs relative to control
# Schistosoma japonicum [5] = experiment: Antischistosomal activity against juvenile Schistosoma japonicum infected in mouse assessed as total worm reduction at 200 mg/kg, po administered 14 days after infection relative to control; set-up: scale not given: the % may be the effect or the level left
# Schistosoma japonicum [6] = experiment: Antischistosomal activity against adult Schistosoma japonicum assessed as worm survival at 20 uM after 72 hrs relative to control
# Schistosoma japonicum [7] = experiment: Antischistosomal activity against juvenile Schistosoma japonicum assessed as worm survival at 50 uM after 72 hrs relative to control
# Schistosoma japonicum [8] = experiment: Antischistosomal activity against juvenile Schistosoma japonicum assessed as worm survival at 25 uM after 72 hrs relative to control
# Schistosoma japonicum [9] = experiment: Antischistosomal activity against juvenile Schistosoma japonicum assessed as worm survival at 25 uM after 48 hrs relative to control
# Schistosoma japonicum [10] = experiment: Antischistosomal activity against juvenile Schistosoma japonicum assessed as worm survival at 50 uM after 48 hrs relative to control
# Schistosoma japonicum [11] = experiment: Antischistosomal activity against adult Schistosoma japonicum assessed as worm survival at 20 uM after 48 hrs relative to control
# Schistosoma japonicum [12] = experiment: Antischistosomal activity against adult Schistosoma japonicum assessed as worm survival at 50 uM after 48 hrs relative to control
# Schistosoma japonicum [13] = experiment: Antischistosomal activity against adult Schistosoma japonicum assessed as worm survival at 25 uM after 24 hrs relative to control
# Schistosoma japonicum [14] = experiment: Antischistosomal activity against adult Schistosoma japonicum assessed as worm survival at 20 uM after 24 hrs relative to control
# Schistosoma japonicum [15] = experiment: Antischistosomal activity against adult Schistosoma japonicum assessed as worm survival at 50 uM after 24 hrs relative to control
# Schistosoma japonicum [16] = experiment: Antischistosomal activity against juvenile Schistosoma japonicum assessed as worm survival at 25 uM after 24 hrs relative to control
# Schistosoma japonicum [17] = experiment: Antischistosomal activity against adult Schistosoma japonicum assessed as worm survival at 50 uM after 72 hrs relative to control
# Schistosoma japonicum [18] = experiment: Antischistosomal activity against adult Schistosoma japonicum assessed as worm survival at 15 uM after 24 hrs relative to control
# Schistosoma japonicum [19] = experiment: Antischistosomal activity against adult Schistosoma japonicum assessed as worm survival at 15 uM after 48 hrs relative to control
# Schistosoma japonicum [20] = experiment: Antischistosomal activity against adult Schistosoma japonicum assessed as worm survival at 15 uM after 72 hrs relative to control
# Schistosoma japonicum [21] = experiment: Antischistosomal activity against adult Schistosoma japonicum assessed as worm survival at 100 uM after 24 hrs relative to control
# Schistosoma japonicum [22] = experiment: Antischistosomal activity against adult Schistosoma japonicum assessed as worm survival at 80 uM after 24 hrs relative to control
# Schistosoma japonicum [23] = experiment: Antischistosomal activity against adult Schistosoma japonicum assessed as worm survival at 100 uM after 48 hrs relative to control
# Schistosoma japonicum [24] = experiment: Antischistosomal activity against adult Schistosoma japonicum assessed as worm survival at 80 uM after 48 hrs relative to control
# Schistosoma japonicum [25] = experiment: Antischistosomal activity against adult Schistosoma japonicum assessed as worm survival at 80 uM after 72 hrs relative to control
# Schistosoma japonicum [26] = experiment: Antischistosomal activity against adult Schistosoma japonicum assessed as worm survival at 100 uM after 72 hrs relative to control
# Schistosoma japonicum [27] = experiment: Antischistosomal activity against adult Schistosoma japonicum assessed as worm survival at 70 uM after 48 hrs relative to control
# Schistosoma japonicum [28] = experiment: Antischistosomal activity against adult Schistosoma japonicum assessed as worm survival at 60 uM after 48 hrs relative to control
# Schistosoma japonicum [29] = experiment: Antischistosomal activity against adult Schistosoma japonicum assessed as worm survival at 70 uM after 24 hrs relative to control
# Schistosoma japonicum [30] = experiment: Antischistosomal activity against adult Schistosoma japonicum assessed as worm survival at 60 uM after 24 hrs relative to control
# Schistosoma japonicum [31] = experiment: Antischistosomal activity against adult Schistosoma japonicum assessed as worm survival at 60 uM after 72 hrs relative to control
# Schistosoma japonicum [32] = experiment: Antischistosomal activity against adult Schistosoma japonicum assessed as worm survival at 70 uM after 72 hrs relative to control
# Schistosoma japonicum [33] = experiment: Antischistosomal activity against juvenile Schistosoma japonicum assessed as worm survival at 100 uM after 24 hrs relative to control
# Schistosoma japonicum [34] = experiment: Antischistosomal activity against juvenile Schistosoma japonicum assessed as worm survival at 100 uM after 72 hrs relative to control
# Schistosoma japonicum [35] = experiment: Antischistosomal activity against juvenile Schistosoma japonicum assessed as worm survival at 100 uM after 48 hrs relative to control
Structure (SMILES),Activity (Schistosoma japonicum [2]) [%],survival at 50 µM (Schistosoma japonicum [4]) [%],Activity (Schistosoma japonicum [5]) [%],survival at 50 µM (Schistosoma japonicum [7]) [%],survival at 50 µM (Schistosoma japonicum [10]) [%],survival at 50 µM (Schistosoma japonicum [12]) [%],survival at 50 µM (Schistosoma japonicum [15]) [%],survival at 50 µM (Schistosoma japonicum [17]) [%],survival at 100 µM (Schistosoma japonicum [21]) [%],survival at 80 µM (Schistosoma japonicum [22]) [%],survival at 100 µM (Schistosoma japonicum [23]) [%],survival at 80 µM (Schistosoma japonicum [24]) [%],survival at 80 µM (Schistosoma japonicum [25]) [%],survival at 100 µM (Schistosoma japonicum [26]) [%],other results
O=C(Nc1ccc2c(c1)C1CN(C(=O)C3CCCCC3)CC(=O)N1CC2)C1CCC2(CC1)OOC1(CCCCC1)OO2 (stereo unspecified),38.7,33.3,25.1,0,0,0,0,0,–,–,–,–,–,–,survival at 25 µM (Schistosoma japonicum [1]): 40%; survival at 25 µM (Schistosoma japonicum [3]): 0%; survival at 20 µM (Schistosoma japonicum [6]): 100%; survival at 25 µM (Schistosoma japonicum [8]): 12.5%; survival at 25 µM (Schistosoma japonicum [9]): 33.3%; survival at 20 µM (Schistosoma japonicum [11]): 100%; survival at 25 µM (Schistosoma japonicum [13]): 60%; survival at 20 µM (Schistosoma japonicum [14]): 100%; survival at 25 µM (Schistosoma japonicum [16]): 37.5%; survival at 15 µM (Schistosoma japonicum [18]): 100%; survival at 15 µM (Schistosoma japonicum [19]): 100%; survival at 15 µM (Schistosoma japonicum [20]): 100%
O=C(Oc1ccc2c(c1)C1CN(C(=O)C3CCCCC3)CC(=O)N1CC2)C1CCC2(CC1)OOC1(CCCCC1)OO2 (stereo unspecified),–,0,–,14.3,14.3,80,40,80,80,80,20,80,40,0,–
O=C(Nc1ccc2c(c1)C1CN(C(=O)C3CCCCC3)CC(=O)N1CC2)C1CCC2(CC1)OOC1(O2)C2CC3CC(C2)CC1C3 (stereo unspecified),–,–,–,–,–,100,100,100,–,–,–,–,–,–,–
O=C(Oc1ccc2c(c1)C1CN(C(=O)C3CCCCC3)CC(=O)N1CC2)C1CCC2(CC1)OOC1(O2)C2CC3CC(C2)CC1C3 (stereo unspecified),–,–,–,–,–,40,40,40,–,0,–,0,0,–,survival at 70 µM (Schistosoma japonicum [27]): 40%; survival at 60 µM (Schistosoma japonicum [28]): 40%; survival at 70 µM (Schistosoma japonicum [29]): 20%; survival at 60 µM (Schistosoma japonicum [30]): 40%; survival at 60 µM (Schistosoma japonicum [31]): 40%; survival at 70 µM (Schistosoma japonicum [32]): 20%
O=C(C1CCCCC1)N1CC(=O)N2CCc3ccccc3C2C1 (stereo unspecified) [PRAZIQUANTEL],66.7,–,19.8,–,–,44.4,62.9,36.3,10,28.8,4.4,19.1,10,1.4,survival at 100 µM (Schistosoma japonicum [33]): 100%; survival at 100 µM (Schistosoma japonicum [34]): 100%; survival at 100 µM (Schistosoma japonicum [35]): 100%
